This note sets out measurements from patent US8110686B2 (Chugai Seiyaki Kabushiki Kaisha, priority 2001, dated 2012).

Series [1] concerns the target T1, malonyl-CoA decarboxylase prepared from rat heart (Rattus norvegicus, UniProt Q920F5).
T1 construct: malonyl-CoA decarboxylase prepared from rat heart; from tissue; host or cells: rat heart
T1 sequence (Q920F5 39-492): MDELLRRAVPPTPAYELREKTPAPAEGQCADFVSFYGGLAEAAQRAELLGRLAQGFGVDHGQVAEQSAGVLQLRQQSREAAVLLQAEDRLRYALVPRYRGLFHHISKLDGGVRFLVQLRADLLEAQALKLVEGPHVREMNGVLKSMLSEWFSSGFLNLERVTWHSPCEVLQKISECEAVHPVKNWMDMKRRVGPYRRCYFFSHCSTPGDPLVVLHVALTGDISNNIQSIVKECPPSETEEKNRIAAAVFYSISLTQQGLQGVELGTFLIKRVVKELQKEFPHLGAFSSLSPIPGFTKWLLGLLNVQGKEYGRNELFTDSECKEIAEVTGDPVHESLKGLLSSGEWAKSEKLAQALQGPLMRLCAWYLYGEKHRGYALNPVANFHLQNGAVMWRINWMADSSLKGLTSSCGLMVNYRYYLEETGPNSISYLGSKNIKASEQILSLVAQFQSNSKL
As to the kind of experiment: In vitro MCD inhibitory assay (spectrophotometric, 96 well). The series is classed as biochemical. The following applies: read-out: IC50 of the MCD inhibitors. The protocol: The following reagents are added into a 96 well titer plate: Tris-HCl buffer, 20 μL; DTE, 10 μL; l-malate, 20 μL; NAD, 10 μL; NADH, 25 μL; water, 80 μL; malic dehydrogenase, 5 μL. The contents are mixed and incubated for 2 min followed by the addition of 5 μL of citrate synthase. […] The content is incubated and absorbence at […] is measured.
Active compounds are characterized by the concentration of the compound that caused 50% inhibition of MCD activity (IC50).

For series [2], the system named is isolated working hearts from male Sprague-Dawley rats. Nature of the series: Glucose oxidation and fatty acid oxidation measurement in the perfused rat heart. The following applies: isolated perfused rat heart assay; versus ranolazine or trimetazidine. The protocol: Isolated working hearts from male Sprague-Dawley rats are subjected to a 60-minute aerobic perfusion period with a modified Krebs-Henseleit solution containing 5 mmol/L glucose; 100 μU/mL insulin; 3% BAS; and 1.2 mmol/L palmitate. Working hearts are used in these studies to approximate the metabolic demand of the heart seen in vivo. (Kantor et al., Circulation Research 86:580-588 (2000)). The test compound is added 5 minutes into the perfusion period.
Glucose oxidation rates are determined by the quantitative collection of ^14CO2 produced by hearts perfused with buffer containing […]. Rates of fatty acid oxidation are determined by the quantitative collection of ^14CO2 produced by hearts perfused with buffer containing [^14C]palmitate (McNeill, J. H. in “Measurement of cardiovascular function”, chapter 2, CRC press, New York (1997)).
Active compounds are characterized by an increase in glucose oxidation as compared to control experiment (DMSO). The compounds that caused statistically significant increases in glucose oxidation are considered to be active. The preferred compounds cause statistically significant increases in glucose oxidation at 20 μM. Statistical significance was calculated using the Student's t test for paired or unpaired samples, as appropriate. The results with P<0.05 are considered to be statistically significant.

The IC50 is the concentration at which inhibition is half-maximal. As for `CC(C)N(C(=O)OCCOCc1ccccc1)c1ccc2nc(S)sc2c1` [Table 4; entry 6], the IC50 in series [1] worked out at 1600 nM.

Broadly, the melting point is the temperature of the solid-liquid transition. `O=C1CNC(=S)N1c1ccc2nc(S)sc2c1` [Table 5; entry 1, 3-(2-mercapto-1,3-benzothiazol-6-yl)-2-thioxoimidazolidin-4-one] came in with a melting point of over 266 °C.

On to `CC(C)N(C(=O)Nc1ccc(C(F)(F)F)cc1)c1ccc2nc(S)sc2c1` [Table 3; entry 16], for which the IC50 in series [1] amounted to 23 nM. Also, the “effects in metabolism shift compared with known metabolism modulators” value in series [2] was “more profound effects in metabolism shift than the known metabolism modulators such as ranolazine or trimetazidine”.

With `CC(C)N(C(=O)Nc1ccc(C(F)(F)F)cc1)c1ccc2nc(S)sc2n1` [Table 7; entry 8], the IC50 in series [1] stood at 52 nM.

In the case of `CC(C)CN(C(=O)Nc1ccc(C#N)cc1)c1ccc2nc(S)sc2c1` [Table 3; entry 3], the IC50 in series [1] was determined as 93 nM.

Take `CCN(C(=O)COc1ccccc1)c1ccc2nc(S)sc2n1` [Table 8; entry 1, N-ethyl-N-(2-mercapto-thiazolo[5,4-b]pyridin-5-yl)-2-phenoxy-acetamide]: the melting point is 107.5 to 109 °C. Also, in series [1], the IC50 was found to be 98 nM.

Regarding `CC(C)N(C(=O)Oc1ccc(Cl)cc1)c1ccc2nc(S)sc2c1` [Table 4; entry 4], in series [1], the IC50 turned out to be 75 nM.

Regarding `CC(C)N(C(=O)c1ccc(C(F)(F)F)cc1)c1ccc2nc(S)sc2n1` [Table 8; entry 7], the IC50 in series [1] was determined as 25 nM. In addition, in series [2], the “effects in metabolism shift compared with known metabolism modulators” value is given as “more profound effects in metabolism shift than the known metabolism modulators such as ranolazine or trimetazidine”.

For the compound `CC(C)CN(C(=O)Nc1ccc(C(F)(F)F)cc1)c1ccc2nc(S)sc2c1` [Table 3; entry 1, N-(2-mercapto-1,3-benzothiazol-6-yl)-N-(2-methylpropyl)-N′-[4-(trifluoromethyl)phenyl]urea], in series [1], the IC50 is 31 nM.

On to `CC(C)N(C(=O)Nc1ccc(CC(=O)O)cc1)c1ccc2nc(S)sc2c1` [Table 3; entry 17], for which the IC50 in series [1] is 42 nM.

In the case of `CCCCOc1ccc(NC(=O)N(CC)c2ccc3nc(S)sc3n2)cc1` [Table 7; entry 1, 3-(4-butoxy-phenyl)-1-ethyl-1-(2-mercapto-thiazolo[5,4-b]pyridin-5-yl)-urea], the melting point lay within 134.3 to 135 °C. Besides, the IC50 in series [1] is 62 nM.
